Measured values: patent US6525059B1, “Substituted pyrazoles as p38 kinase inhibitors” (G. D. Searle & Company, priority 1998, dated 2003)
Where a name gives a salt, the structure may show the parent alone. Read-outs that look alike come from different tables or passages of the source. Blank lines part the entries; values can stand above or below the compound they belong to.

Assays:
human TNF = assay: TNF inhibition: human whole blood assay; format: cell-based; details: Homo sapiens
Description: Human peripheral blood is obtained in heparinized tubes. A 190 μL aliquot of blood is placed in each well of a 96 well u-bottom plate. […] After one hour of incubation at 37° C., […] of lipopolysaccharide (Salmonella typhosa, Sigma) in phosphate buffered saline is added resulting in a final concentration of […]. After four to five hours of incubation at 37° C., the supernatants are harvested and assayed at 1:10 or 1:20 dilutions for human TNF using ELISA.

TNF-α = assay: Rat assay: LPS-challenged rats, serum TNF-α by ELISA; format: in vivo; details: Rattus norvegicus, po; for inhibition in vivo at 20 mg/kg: Table 8, dose 20.0 mg/kg
[1] = target: T1, human GST-p38 kinase alpha (Homo sapiens, UniProt Q16539); assay: p38 kinase in vitro assay, second format, phosphorylation of EGFRP with 33P-ATP; format: biochemical; details: read-out: p38α Kinase Assay IC50
T1 construct: The coding region of the human p38a cDNA was obtained by PCR-amplification from RNA isolated from the human monocyte cell line THP.1; made in house; host or cells: E. coli DH10B
T1 sequence (Q16539 whole entry): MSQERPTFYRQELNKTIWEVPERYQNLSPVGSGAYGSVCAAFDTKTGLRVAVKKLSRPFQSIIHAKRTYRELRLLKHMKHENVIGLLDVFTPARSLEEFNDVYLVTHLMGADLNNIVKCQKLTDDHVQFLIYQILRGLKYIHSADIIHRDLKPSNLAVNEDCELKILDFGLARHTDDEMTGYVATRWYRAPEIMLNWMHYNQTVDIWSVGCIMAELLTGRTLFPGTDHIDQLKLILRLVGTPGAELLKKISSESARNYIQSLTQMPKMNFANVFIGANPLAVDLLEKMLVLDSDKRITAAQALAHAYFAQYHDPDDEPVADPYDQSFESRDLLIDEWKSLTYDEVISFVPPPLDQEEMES
Description: A second assay format was also employed that is based on p38 kinase alpha induced phosphorylation of EGFRP (epidermal growth factor receptor peptide, a 21 mer) in the presence of ^33P-ATP. Compounds were tested in 10 fold serial dilutions over the range of 100 μM to 0.001 μM in 10% DMSO. Each concentration of inhibitor was tested in triplicate. Compounds were evaluated in 50 μl reaction volumes in the presence of 25 mM Hepes pH 7.5, 10 mM magnesium acetate, 4% glycerol, 0.4% bovine serum albumin, 0.4 mM DTT, 50 μM unlabeled ATP, 25 μg EGFRP (200 μM), and 0.05 uCi gamma ^33P-ATP. Reactions were initiated by addition of 0.09 μg of activated, purified human GST-p38 kinase alpha. Activation was carried out using GST-MKK6 (5:1, p38: MKK6) for one hour at 30° C. in the presence of 50 μM ATP. Following incubation for 60 minutes at room temperature, the reaction was stopped by addition of 150 μl of AG 1×8 resin in 900 mM sodium formate buffer, pH 3.0 (1 volume resin to 2 volumes buffer). The mixture was mixed three times with pipetting and the resin was allowed to settle. A total of 50 μl of clarified solution head volume was transferred from the reaction wells to Microlite-2 plates. 150 μl of Microscint 40 was then added to each well of the Microlite plate, and the plate was sealed, mixed, and counted.

human p38 kinase alpha = target: T2, human p38 kinase alpha (Homo sapiens, UniProt Q16539); assay: p38 kinase in vitro assay, phosphorylation of biotinylated PHAS-I with gamma 32P-ATP; format: biochemical; details: read-out: P38 alpha kinase IC50
T2 construct: The coding region of the human p38a cDNA was obtained by PCR-amplification from RNA isolated from the human monocyte cell line THP.1; GST (N); made in house; host or cells: E. coli DH10B
T2 sequence (Q16539 whole entry): as above
How it was run: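 MKK6-activated human p38α phosphorylates biotinylated PHAS-I with γ-32P-ATP in 25 mM HEPES pH 7.5, 10 mM Mg acetate, 50 μM unlabeled ATP, 1% DMSO, 30 °C for 1 h or overnight. Compounds at 100–0.001 μM (10-fold steps, triplicate); substrate captured on streptavidin filter plates and counted by scintillation.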

[2] = Table 8, human whole blood, LPS, read-out: TNF Inhibition-Human Whole Blood Assay
[3] = Table 10, human whole blood, LPS, read-out: TNF Inhibition-Human Whole Blood Assay
[4] = TNF production, LPS-stimulated human whole blood, read-out: Human Whole Blood IC50
[5] = 5 mpk oral gavage, 4 h before LPS challenge, read-out: Rat LPS Model % Inhibition @ dose @ predose time

SMILES: CN1CCN(Cc2n[nH]c(-c3ccc(F)cc3)c2-c2ccncc2)CC1 [A-313, Step 3, 1-[[5-(4-fluorophenyl)-4-(4-pyridinyl)-1H-pyrazol-3-yl]methyl]-4-methylpiperazine]
IC50 (human TNF; [2]): 120 nM
inhibition in vivo at 20 mg/kg (TNF-α): 96%
IC50 ([1]; Table 8, 10% DMSO): 370 nM

SMILES: Fc1ccc(-c2[nH]nc(CN3CCNCC3)c2-c2ccncc2)cc1 [A-314, Step 2, 1-[[5-(4-fluorophenyl)-4-(4-pyridinyl)-1H-pyrazol-3-yl]methyl]-4-piperazine]
IC50 (human TNF; [2]): 470 nM
inhibition in vivo at 1 mg/kg (TNF-α; Table 8, dose 1.0 mg/kg, read-out: Rat LPS Assay % Inhibition): 0%
inhibition in vivo at 5 mg/kg (TNF-α; Table 8, dose 5.0 mg/kg, read-out: Rat LPS Assay % Inhibition): 53%
inhibition in vivo at 20 mg/kg (TNF-α): 85%
IC50 ([1]; Table 8, 10% DMSO): 32 nM

SMILES: CN1CCN(c2n[nH]c(-c3ccc(F)cc3)c2-c2ccncc2)CC1 [Example A-317, 1-[5-(4-fluorophenyl)-4-(4-pyridinyl)-1H-pyrazol-3-yl]-4-methylpiperazine, dihydrate]
IC50 (human TNF; [2]): 450 nM
inhibition in vivo at 10 mg/kg (TNF-α; Table 8, dose 10.0 mg/kg): 69%
IC50 ([1]; Table 8, 10% DMSO): 70 nM

SMILES: CN1CCC(Nc2n[nH]c(-c3ccc(F)cc3)c2-c2ccncc2)CC1 [Example A-338, N-[5-(4-fluorophenyl)-4-(pyridinyl)-1H-pyrazol-3-yl]-1-methyl-4-piperidinamine]
IC50 (human TNF; [2]): 59 nM
IC50 ([1]; Table 8, 10% DMSO): 18 nM

SMILES: CS(=O)(=O)c1[nH]nc(-c2ccc(F)cc2)c1-c1ccncc1 [Example A-437, 3-(4-fluorophenyl)-5-(methylsulfonyl)-4-pyridin-4-yl-1H-pyrazole]
IC50 (human TNF; [3]): > 25000 nM
IC50 ([1]; Table 10, 10% DMSO, @ 1.0 hour): 7760 nM

SMILES: Clc1ccc(-c2n[nH]c(SCCN3CCCC3)c2-c2ccncc2)cc1 [Example A-460]
IC50 (human TNF; [3]): 8910 nM
IC50 ([1]; Table 10, 10% DMSO, @ 1.0 hour): 1840 nM

SMILES: CN1CCC[C@H]1c1[nH]nc(-c2ccc(F)cc2)c1-c1ccncc1 [Example C-124, (S)-5-(N-METHYL-2-PYROLIDINYL)-4-(4-PYRIDYL)-3-(4-FLUOROPHENYL)PYRAZOLE]
IC50 (human TNF; [4]): 4560 nM
inhibition in vivo at 5 mg/kg (TNF-α; [5]): 51%
IC50 (human p38 kinase alpha): 170 nM

SMILES: CN1CCC[C@@H]1c1[nH]nc(-c2ccc(F)cc2)c1-c1ccncc1 [Example C-126, (R)-5-(N-METHYL-2-PYROLIDINYL)-4-(4-PYRIDYL)-3-(4-FLUOROPHENYL)PYRAZOLE]
IC50 (human TNF; [4]): > 25000 nM
inhibition in vivo at 5 mg/kg (TNF-α; [5]): 6%
IC50 (human p38 kinase alpha): 710 nM

SMILES: CN1CCC[C@@H](c2[nH]nc(-c3ccc(F)cc3)c2-c2ccncc2)C1 [Example C-128]
IC50 (human TNF; [4]): 2220 nM
inhibition in vivo at 5 mg/kg (TNF-α; [5]): 63%
IC50 (human p38 kinase alpha): 90 nM

More lines, now with the values ahead:

IC50 (human TNF; [2]): 1750 nM
IC50 ([1]; Table 8, 10% DMSO): 49 nM
SMILES: Fc1ccc(-c2n[nH]c(CC3CCNCC3)c2-c2ccncc2)cc1 [Example A-315, 4-[3-(4-fluorophenyl)-5-(4-piperidinylmethyl)-1H-pyrazol-4-yl]pyridine]

IC50 (human TNF; [2]): > 25000 nM
IC50 ([1]; Table 8, 10% DMSO): 89900 nM
SMILES: Clc1ccc(-c2[nH]nc(N3CCN(c4ccccc4)CC3)c2-c2ccncc2)cc1 [Example A-335, 1-[5-(4-chlorophenyl)-4-(4-pyridinyl)-1H-pyrazol-3-yl]-4-phenylpiperazine]

IC50 (human TNF; [2]): > 25000 nM
IC50 ([1]; Table 8, 10% DMSO): 1350 nM
SMILES: CCOC(=O)N1CCC(Nc2n[nH]c(-c3ccc(F)cc3)c2-c2ccncc2)CC1 [Example A-337, Ethyl 4-[[5-(4-fluorophenyl)-4-(4-pyridinyl)-1H-pyrazol-3-yl]amino]-1-piperidinecarboxylate, monohydrate]

IC50 (human TNF; [2]): 56 nM
IC50 ([1]; Table 8, 10% DMSO): 52 nM
SMILES: Fc1ccc(-c2[nH]nc(NC3CCNCC3)c2-c2ccncc2)cc1 [Example A-339, N-[5-(4-fluorophenyl)-4-(4-pyridinyl)-1H-pyrazol-3-yl]-4-piperidinamine, trihydrochloride]
